Measurements reported in ChEMBL document CHEMBL1201862, “PubChem BioAssay data set” (2004).
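Assay format: 96-well plates, 48-hour exposure. The concentration for 50% growth inhibition is given as GI50.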 Calls of active or inactive are those of the source. Cut-off read from the data, not from the text of the source: active = GI50 up to about 1.1 µM and inactive = higher.

Experiments:
Test in all cases: inhibition of tumour cell growth, NCI panel, 48 h
IGROV-1 = system: IGROV-1
HT-29 = system: HT-29
SNB-75 = system: SNB-75
HCT-15 = system: HCT-15
XF498 = system: XF498
SK-MEL-5 = system: SK-MEL-5
OVCAR-5 = system: OVCAR-5
SF-539 = system: SF-539
SK-MEL-2 = system: SK-MEL-2
HOP-18 = system: HOP-18
MOLT-4 = system: MOLT-4
OVCAR-4 = system: OVCAR-4
KM12 = system: KM12
SK-OV-3 = system: SK-OV-3
RPMI-8226 = system: RPMI-8226
RXF 393 = system: RXF 393
U-251 = system: U-251
OVCAR-8 = system: OVCAR-8
CAKI-1 = system: CAKI-1
A549 = system: A549
RXF 631 = system: RXF 631
HOP-62 = system: HOP-62
SNB-19 = system: SNB-19
NCI-H23 = system: NCI-H23
UACC-62 = system: UACC-62
HCT-116 = system: HCT-116
UACC-257 = system: UACC-257
DMS-114 = system: DMS-114
SF-268 = system: SF-268
NCI-H522 = system: NCI-H522
KM-20L2 = system: KM-20L2
NCI-H226 = system: NCI-H226
A498 = system: A498
786-0 = system: 786-0
EKVX = system: EKVX
ACHN = system: ACHN
HCC 2998 = system: HCC 2998
NCI-H460 = system: NCI-H460
COLO 205 = system: COLO 205
SN12C = system: SN12C
HOP-92 = system: HOP-92
HL-60 = system: HL-60
K562 = system: K562
OVCAR-3 = system: OVCAR-3
LXFL 529 = system: LXFL 529
Malme-3M = system: Malme-3M
SW-620 = system: SW-620
DMS-273 = system: DMS-273
UO-31 = system: UO-31
SF-295 = system: SF-295
M14 = system: M14
M19-MEL = system: M19-MEL
TK-10 = system: TK-10
CCRF-CEM = system: CCRF-CEM
SK-MEL-28 = system: SK-MEL-28
LOX IMVI = system: LOX IMVI
DLD-1 = system: DLD-1
SNB-78 = system: SNB-78

Measured: GI50

Nc1cc2c3c(cccc3c1)C(=O)N(CCN1CCN(CCN3C(=O)c4cccc5cc(N)cc(c45)C3=O)CC1)C2=O
> 100 µM: HCT-15
inactive: IGROV-1 > 100 µM | HT-29 32 µM | SNB-75 > 100 µM | XF498 > 100 µM | SK-MEL-5 > 100 µM | OVCAR-5 > 100 µM | SF-539 > 100 µM | SK-MEL-2 > 100 µM | HOP-18 > 100 µM | MOLT-4 25.3 µM | OVCAR-4 > 100 µM | KM12 > 100 µM | SK-OV-3 > 100 µM | RPMI-8226 > 100 µM | RXF 393 > 100 µM | U-251 > 100 µM | OVCAR-8 74.3 µM | CAKI-1 > 100 µM | A549 46.3 µM | RXF 631 > 100 µM | HOP-62 > 100 µM | SNB-19 76.2 µM | NCI-H23 > 100 µM | UACC-62 > 100 µM | HCT-116 67.6 µM | UACC-257 > 100 µM | DMS-114 > 100 µM | SF-268 91.2 µM | NCI-H522 > 100 µM | KM-20L2 > 100 µM | NCI-H226 31.5 µM | A498 > 100 µM | 786-0 > 100 µM | EKVX > 100 µM | ACHN > 100 µM | HCC 2998 > 100 µM | NCI-H460 33.3 µM | COLO 205 > 100 µM | SN12C > 100 µM | HOP-92 > 100 µM | HL-60 > 100 µM | K562 > 100 µM | OVCAR-3 > 100 µM | LXFL 529 67 µM | Malme-3M > 100 µM | SW-620 38.8 µM | DMS-273 > 100 µM | UO-31 37.9 µM | SF-295 97.1 µM | M14 98.9 µM | M19-MEL > 100 µM | TK-10 > 100 µM | CCRF-CEM > 100 µM | SK-MEL-28 > 100 µM

CC(=O)OC1COC(n2c(=S)n(-c3ccccc3)c(=O)c3ccccc32)C(OC(C)=O)C1OC(C)=O (stereo unspecified)
inactive: IGROV-1 67.3 µM | HT-29 85.3 µM | SNB-75 > 100 µM | XF498 74.6 µM | SK-MEL-5 98.2 µM | OVCAR-5 > 100 µM | SF-539 > 100 µM | SK-MEL-2 13.1 µM | HOP-18 > 100 µM | MOLT-4 21 µM | OVCAR-4 26.8 µM | LOX IMVI 21.4 µM | KM12 29.2 µM | SK-OV-3 > 100 µM | RPMI-8226 22.5 µM | RXF 393 55.3 µM | U-251 78.5 µM | OVCAR-8 72.8 µM | CAKI-1 2.94 µM | A549 39.9 µM | RXF 631 47.9 µM | HOP-62 > 100 µM | SNB-19 > 100 µM | NCI-H23 70 µM | UACC-62 4.05 µM | HCT-116 47.9 µM | UACC-257 > 100 µM | DMS-114 40.6 µM | SF-268 89.9 µM | DLD-1 56.5 µM | NCI-H522 35 µM | KM-20L2 4.29 µM | NCI-H226 > 100 µM | A498 > 100 µM | 786-0 78.9 µM | SNB-78 > 100 µM | EKVX > 100 µM | ACHN 25.2 µM | HCC 2998 58.2 µM | NCI-H460 66.1 µM | COLO 205 99.1 µM | SN12C > 100 µM | HOP-92 37.1 µM | HL-60 20.4 µM | K562 2.51 µM | OVCAR-3 74.6 µM | LXFL 529 8.55 µM | Malme-3M > 100 µM | SW-620 44.6 µM | DMS-273 19.2 µM | UO-31 48.9 µM | SF-295 19.9 µM | M14 21.3 µM | CCRF-CEM 32.7 µM | SK-MEL-28 > 100 µM
6 µM: HCT-15
